Experimental data from ChEMBL document CHEMBL1201862, “PubChem BioAssay data set” (2004).
Calls of active or inactive are those of the source.

Key:
[1] = biological target: T1, Probable nicotinate-nucleotide adenylyltransferase (Staphylococcus aureus (strain N315), UniProt P65502); type: functional, Staphylococcus aureus subsp. aureus N315;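 on IC50 Mean: confirmatory dose-response retesting of NadD inhibitor hits first found in an ultra-high-throughput screen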
[2] = biological target: T1, Probable nicotinate-nucleotide adenylyltransferase; type: functional, Staphylococcus aureus subsp. aureus N315; details: read-out: IC50_Mean
[3] = biological target: T2, Carboxy-terminal domain RNA polymerase II polypeptide A small phosphatase 1 (Homo sapiens, UniProt Q9GZU7); assay: CTDSP1 inhibitors, concentration-response, biochemical, absorbance readout, ultra-high-throughput screen actives (AID 540297); type: functional
T2 sequence (Q9GZU7 whole entry): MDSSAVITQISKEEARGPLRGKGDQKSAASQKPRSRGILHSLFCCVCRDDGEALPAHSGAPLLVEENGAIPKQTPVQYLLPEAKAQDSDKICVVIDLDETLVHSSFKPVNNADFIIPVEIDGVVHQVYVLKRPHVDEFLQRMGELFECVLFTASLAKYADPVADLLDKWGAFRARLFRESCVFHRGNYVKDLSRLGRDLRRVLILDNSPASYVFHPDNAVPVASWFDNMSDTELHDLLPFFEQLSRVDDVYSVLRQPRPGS

[4] = biological target: T3, Small ubiquitin-related modifier 1 (Homo sapiens, UniProt P63165); assay: SUMO1 protein interaction blockers, potency – biochemical, fluorescence polarization, uHTS hits, dose response (AID 624382); type: functional; details: read-out: IC50_Mean
T3 sequence (P63165 whole entry): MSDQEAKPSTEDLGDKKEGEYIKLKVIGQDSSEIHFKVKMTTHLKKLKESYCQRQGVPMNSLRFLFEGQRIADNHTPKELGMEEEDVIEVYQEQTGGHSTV

[5] = biological target: T3, Small ubiquitin-related modifier 1; assay: SUMO1 protein-protein binding blockers, potency – biochemical, FRET, dose response (AID 624383); type: functional; details: read-out: IC50_Mean
[6] = biological target: T4, Low molecular weight phosphotyrosine protein phosphatase (Homo sapiens, UniProt P24666); type: functional; details: read-out: IC50_Mean;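 further: Dose-response confirmation assay measuring inhibition of LMPTP enzyme activity by fluorescence intensity read-out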
T4 sequence (P24666 whole entry): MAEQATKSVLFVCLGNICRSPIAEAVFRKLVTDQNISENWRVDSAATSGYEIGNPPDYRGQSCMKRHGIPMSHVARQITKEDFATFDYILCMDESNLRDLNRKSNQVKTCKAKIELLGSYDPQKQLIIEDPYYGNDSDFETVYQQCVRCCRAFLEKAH

[7] = biological target: T5, Corticotropin-releasing factor receptor 2/Corticotropin-releasing factor-binding protein (Homo sapiens, UniProt P24387+Q13324); assay: Dose Response confirmation of uHTS hits for small molecule antagonists of the CRF-binding protein and CRF-R2 receptor complex.; type: functional; details: read-out: IC50_Mean
T5 sequence (Q13324 whole entry): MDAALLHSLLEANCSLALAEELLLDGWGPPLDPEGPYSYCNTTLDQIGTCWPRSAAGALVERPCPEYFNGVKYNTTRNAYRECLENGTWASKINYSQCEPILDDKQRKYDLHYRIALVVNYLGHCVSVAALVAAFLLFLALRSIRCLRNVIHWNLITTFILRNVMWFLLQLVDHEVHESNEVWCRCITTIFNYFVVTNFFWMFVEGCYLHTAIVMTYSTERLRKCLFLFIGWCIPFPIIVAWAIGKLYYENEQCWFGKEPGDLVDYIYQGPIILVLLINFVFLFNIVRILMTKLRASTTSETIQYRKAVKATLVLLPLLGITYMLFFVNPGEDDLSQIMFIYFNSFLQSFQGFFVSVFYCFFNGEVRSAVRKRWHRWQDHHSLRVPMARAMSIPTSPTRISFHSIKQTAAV
T5 sequence (P24387 whole entry): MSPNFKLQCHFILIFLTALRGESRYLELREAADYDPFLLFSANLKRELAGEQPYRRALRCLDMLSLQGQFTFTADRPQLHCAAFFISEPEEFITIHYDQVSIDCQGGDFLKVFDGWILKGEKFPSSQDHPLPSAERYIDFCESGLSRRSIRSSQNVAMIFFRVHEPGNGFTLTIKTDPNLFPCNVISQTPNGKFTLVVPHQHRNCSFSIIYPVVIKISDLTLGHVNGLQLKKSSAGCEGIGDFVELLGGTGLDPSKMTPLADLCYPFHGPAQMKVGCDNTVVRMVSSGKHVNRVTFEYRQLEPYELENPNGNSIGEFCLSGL

[8] = biological target: T5, Corticotropin-releasing factor receptor 2/Corticotropin-releasing factor-binding protein; assay: activators of CRF receptor 2 with binding protein – uHTS hits, confirmation (AID 602473); type: functional; details: read-out: EC50_Mean
[9] = blockers of CRF-binding protein–CRF-R2 complex – cell-based, uHTS hits, 384-well, dose response (AID 651639); type: functional, Homo sapiens; details: read-out: IC50_Mean
[10] = biological target: T6, Heat shock factor protein 1 (Mus musculus, UniProt P38532); assay: decrease of HSF1-responsive luciferase luminescence – cell-based, NIH3T3, dose retest, confirmation (AID 2382); type: functional;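 further: NIH3T3 fibroblasts with HSF1-driven luciferase reporter stressed by proteasome inhibitor MG132; luminescence from HSF1-driven luciferase expression after 8 hours of MG132 stress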
T6 sequence (P38532 whole entry): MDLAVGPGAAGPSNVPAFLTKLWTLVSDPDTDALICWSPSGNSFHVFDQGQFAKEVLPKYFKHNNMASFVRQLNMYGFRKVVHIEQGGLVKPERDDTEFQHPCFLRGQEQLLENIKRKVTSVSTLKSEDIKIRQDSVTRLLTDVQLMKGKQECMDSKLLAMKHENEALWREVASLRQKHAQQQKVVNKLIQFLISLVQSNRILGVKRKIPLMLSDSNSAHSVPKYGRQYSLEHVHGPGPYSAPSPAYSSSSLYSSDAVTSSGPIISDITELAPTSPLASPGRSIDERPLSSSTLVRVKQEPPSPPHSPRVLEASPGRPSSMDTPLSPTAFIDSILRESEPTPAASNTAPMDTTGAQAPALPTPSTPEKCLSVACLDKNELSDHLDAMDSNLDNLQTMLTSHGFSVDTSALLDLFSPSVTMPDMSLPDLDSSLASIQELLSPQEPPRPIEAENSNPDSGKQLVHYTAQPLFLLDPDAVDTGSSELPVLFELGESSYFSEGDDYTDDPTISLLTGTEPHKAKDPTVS

Interleukin-8 [11] = biological target: T7, Interleukin-8 (Homo sapiens, UniProt P10145); assay: Dose Response confirmation of uHTS small molecule hits for cystic fibrosis induced NFkb Inhibitors in a TNFa-induced IL8 counterscreen.; type: functional; details: read-out: IC50_Mean
T7 sequence (P10145 whole entry): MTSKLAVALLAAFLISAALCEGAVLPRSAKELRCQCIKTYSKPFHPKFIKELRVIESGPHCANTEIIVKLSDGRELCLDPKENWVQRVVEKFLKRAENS

Interleukin-8 [12] = biological target: T7, Interleukin-8; assay: Dose Response confirmation of uHTS small molecule hits for cystic fibrosis induced NFkb Inhibitors in a PAF-induced IL8 counterscreen.; type: functional; details: read-out: IC50_Mean
[13] = activation of miR-122 Renilla sensor silencing – cell-based, Huh7 psiCHECK-miR122, Renilla luciferase, cherry-picked, dose response (AID 651956); type: functional;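 further: huh7 hepatoma cells stably carrying a psiCHECK-2 miR-122 sensor plasmid; renilla luciferase signal reporting endogenous miR-122 activity after 48 h compound exposure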
[14] = inhibition of ARNT PAS-B/TACC3 complex formation – biochemical, AlphaScreen, cherry-picked samples, confirmation (AID 651703); type: functional, Homo sapiens;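 further: His-tagged ARNT PAS-B domain paired with GST-TACC3 E629A dimer coactivator fragment; potency of inhibitors that break up the complex and lower AlphaScreen signal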
[15] = biological target: T8, Methionyl-tRNA synthetase, putative (Trypanosoma brucei brucei, UniProt Q38C91); type: functional, Trypanosoma brucei brucei strain 927/4 GUTat10.1
T8 sequence (Q38C91 whole entry): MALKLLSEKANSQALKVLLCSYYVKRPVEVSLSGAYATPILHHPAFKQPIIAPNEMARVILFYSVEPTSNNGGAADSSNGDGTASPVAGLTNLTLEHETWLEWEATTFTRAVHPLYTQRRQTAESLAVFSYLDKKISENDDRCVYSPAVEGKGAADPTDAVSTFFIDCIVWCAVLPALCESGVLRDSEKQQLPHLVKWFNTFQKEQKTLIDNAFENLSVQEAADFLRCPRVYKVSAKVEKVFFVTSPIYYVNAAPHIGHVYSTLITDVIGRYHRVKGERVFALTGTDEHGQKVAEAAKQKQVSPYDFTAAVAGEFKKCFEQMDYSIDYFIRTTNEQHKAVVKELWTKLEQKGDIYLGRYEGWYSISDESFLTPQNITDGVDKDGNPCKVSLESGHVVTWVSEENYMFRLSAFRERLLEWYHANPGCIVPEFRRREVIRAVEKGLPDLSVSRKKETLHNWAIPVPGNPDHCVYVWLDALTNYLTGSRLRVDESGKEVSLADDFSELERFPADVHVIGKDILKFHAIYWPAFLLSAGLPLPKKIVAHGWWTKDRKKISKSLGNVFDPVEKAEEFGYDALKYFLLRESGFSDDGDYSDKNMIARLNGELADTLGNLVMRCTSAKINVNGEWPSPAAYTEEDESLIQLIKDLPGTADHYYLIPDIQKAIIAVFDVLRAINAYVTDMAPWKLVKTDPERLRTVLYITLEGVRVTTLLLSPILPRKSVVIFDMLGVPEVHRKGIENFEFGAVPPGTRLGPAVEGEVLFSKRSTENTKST

[16] = Counterscreen for inhibitors of Trypanosoma brucei methionyl tRNA synthetase (MetRS): Luminescence-based cell-based high throughput dose response assay to identify compounds that are cytotoxic to Jurkat human T lymphocyte cells.; type: functional
[17] = biological target: T8, Methionyl-tRNA synthetase, putative; type: functional, Trypanosoma brucei brucei strain 927/4 GUTat10.1; remark: listed apart in the source
[18] = biological target: SWI/SNF-related matrix-associated actin-dependent regulator of chromatin subfamily A member 2 (Homo sapiens, UniProt P51531); assay: Luminescence-based cell-based high throughput dose response assay to identify activators of the function of SWI/SNF related, matrix associated, actin dependent regulator of chromatin, subfamily a, member 2 (SMARCA2, BRM).; type: functional
Sequence of SWI/SNF-related matrix-associated actin-dependent regulator of chromatin subfamily A member 2 (P51531 whole entry): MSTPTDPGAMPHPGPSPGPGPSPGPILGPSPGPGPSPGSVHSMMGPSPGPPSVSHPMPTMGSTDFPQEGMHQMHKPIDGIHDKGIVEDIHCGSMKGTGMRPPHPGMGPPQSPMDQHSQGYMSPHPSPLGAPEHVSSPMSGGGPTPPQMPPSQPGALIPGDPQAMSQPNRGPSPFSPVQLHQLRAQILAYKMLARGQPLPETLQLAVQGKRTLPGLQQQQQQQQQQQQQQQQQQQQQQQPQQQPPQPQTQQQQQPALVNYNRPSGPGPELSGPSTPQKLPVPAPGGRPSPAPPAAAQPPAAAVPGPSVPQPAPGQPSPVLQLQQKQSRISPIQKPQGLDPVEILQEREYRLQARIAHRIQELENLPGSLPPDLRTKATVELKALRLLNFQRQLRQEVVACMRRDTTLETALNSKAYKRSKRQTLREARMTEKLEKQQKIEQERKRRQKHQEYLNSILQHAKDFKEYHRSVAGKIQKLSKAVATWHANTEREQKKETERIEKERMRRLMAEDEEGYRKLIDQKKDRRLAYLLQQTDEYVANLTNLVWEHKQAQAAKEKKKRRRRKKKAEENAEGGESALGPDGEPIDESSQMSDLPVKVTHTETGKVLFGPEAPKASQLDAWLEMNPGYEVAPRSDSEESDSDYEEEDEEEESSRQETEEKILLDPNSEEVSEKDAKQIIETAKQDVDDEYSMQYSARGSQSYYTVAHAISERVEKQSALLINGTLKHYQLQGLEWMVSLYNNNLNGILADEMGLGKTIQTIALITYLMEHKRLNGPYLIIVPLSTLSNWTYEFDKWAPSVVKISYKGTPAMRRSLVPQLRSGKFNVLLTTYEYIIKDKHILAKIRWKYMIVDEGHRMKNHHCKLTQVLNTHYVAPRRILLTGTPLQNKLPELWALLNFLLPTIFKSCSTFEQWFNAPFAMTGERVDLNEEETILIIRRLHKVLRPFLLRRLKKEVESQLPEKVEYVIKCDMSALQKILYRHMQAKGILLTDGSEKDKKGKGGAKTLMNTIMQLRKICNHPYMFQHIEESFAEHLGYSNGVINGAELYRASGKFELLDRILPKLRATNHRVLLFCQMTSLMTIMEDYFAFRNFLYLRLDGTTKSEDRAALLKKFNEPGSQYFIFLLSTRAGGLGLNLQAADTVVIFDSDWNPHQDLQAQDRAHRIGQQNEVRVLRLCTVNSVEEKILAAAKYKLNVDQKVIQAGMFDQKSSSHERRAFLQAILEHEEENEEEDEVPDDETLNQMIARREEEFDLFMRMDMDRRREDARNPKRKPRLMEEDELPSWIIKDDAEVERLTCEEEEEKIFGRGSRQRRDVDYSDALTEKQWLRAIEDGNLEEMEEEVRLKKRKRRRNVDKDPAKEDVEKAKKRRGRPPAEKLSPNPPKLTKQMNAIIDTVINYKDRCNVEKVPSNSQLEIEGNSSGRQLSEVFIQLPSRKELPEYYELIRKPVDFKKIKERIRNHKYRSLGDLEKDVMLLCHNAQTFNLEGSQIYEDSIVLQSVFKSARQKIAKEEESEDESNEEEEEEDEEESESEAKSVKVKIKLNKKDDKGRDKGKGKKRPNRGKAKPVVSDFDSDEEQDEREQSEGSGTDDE

[19] = Counterscreen for activators of the function of SWI/SNF related, matrix associated, actin dependent regulator of chromatin, subfamily a, member 2 (SMARCA2, BRM): Luminescence-based cell-based high throughput dose response assay to identify non-selective compounds using the VP16 reporter assay.; type: functional
Protein skinhead-1 = biological target: T9, Protein skinhead-1 (Caenorhabditis elegans, UniProt P34707); type: functional
T9 sequence (P34707 whole entry): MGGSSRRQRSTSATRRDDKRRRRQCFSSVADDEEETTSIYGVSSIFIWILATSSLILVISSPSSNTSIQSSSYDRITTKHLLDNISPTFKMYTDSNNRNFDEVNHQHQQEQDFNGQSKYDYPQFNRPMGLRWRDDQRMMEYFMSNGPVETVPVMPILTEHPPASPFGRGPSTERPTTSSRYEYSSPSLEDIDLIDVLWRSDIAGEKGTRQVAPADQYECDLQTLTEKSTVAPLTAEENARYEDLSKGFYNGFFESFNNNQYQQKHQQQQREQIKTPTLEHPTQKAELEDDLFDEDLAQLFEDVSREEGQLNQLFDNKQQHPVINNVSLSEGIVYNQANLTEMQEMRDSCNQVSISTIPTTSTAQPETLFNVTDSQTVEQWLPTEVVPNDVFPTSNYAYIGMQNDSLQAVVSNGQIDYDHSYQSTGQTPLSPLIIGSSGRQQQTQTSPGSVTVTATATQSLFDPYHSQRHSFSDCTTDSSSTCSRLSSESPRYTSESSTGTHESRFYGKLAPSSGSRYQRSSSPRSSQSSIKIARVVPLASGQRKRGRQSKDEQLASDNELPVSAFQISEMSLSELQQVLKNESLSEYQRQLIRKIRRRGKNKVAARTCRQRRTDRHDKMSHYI

[20] = biological target: Matrix metalloproteinase-14 (Homo sapiens, UniProt P50281); assay: Dose Response confirmation of uHTS hits for a small molecule inhibitors of MT1-MMP activation in a fluorescence assay set 1.; type: functional

T1 sequence (P65502 whole entry): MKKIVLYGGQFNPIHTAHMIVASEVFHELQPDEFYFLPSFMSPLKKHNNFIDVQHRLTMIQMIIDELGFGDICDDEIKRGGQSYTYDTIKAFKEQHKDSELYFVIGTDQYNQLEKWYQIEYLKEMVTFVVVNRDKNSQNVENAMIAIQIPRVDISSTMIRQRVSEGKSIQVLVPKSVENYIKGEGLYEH

CCOc1ccc(C(=O)N/N=C/c2ccc(-c3ccc(S(=O)(=O)Nc4ncccn4)cc3)o2)cc1
IC50 [1]: 5.34 µM (active) | IC50 [2]: 23.8 µM (active)

COC(=O)c1ccc(C(=O)Nc2ccc3c(c2)C(=O)NC3=O)cc1
IC50 [3]: 6.87 µM (active) | IC50 [4]: > 66.6 µM (inactive) | IC50 [5]: 5.19 µM (active)

O=C(Nc1ccc2oc(-c3ccncc3)nc2c1)c1ccc2c(c1)OCO2
IC50 [4]: > 66.6 µM (inactive) | IC50 [5]: 7.12 µM (active) | IC50 [6]: 7.98 µM (active)

Cc1noc(C)c1COC(=O)Cc1ccc(Cl)c(Cl)c1
IC50 [7]: 33.8 µM (active) | EC50 [8]: > 53 µM (inactive) | IC50 [9]: > 20 µM (inactive)

CCN1CCN(Cc2ccc(NC(=O)c3ccc(C)c(NC(=O)c4cccc5[nH]ccc45)c3)cc2C(F)(F)F)CC1
EC50 [10]: 2.79 µM (active) | IC50 (Interleukin-8 [11]): 39.9 µM (inactive) | IC50 (Interleukin-8 [12]): 4.72 µM (active)

c1ccc(-n2nnnc2NCCc2c[nH]c3ccccc23)cc1
AC50 [13]: 9.93 µM (active)

O=C(CN1c2ccccc2Sc2ccccc21)NNC(=S)Nc1ccc(Cl)cc1Cl
IC50 [1]: 13.7 µM (active) | IC50 [2]: 52.2 µM (active)

CCN(CC)C(=O)CSc1nnc(-c2ccccn2)n1-c1ccc(C)c(C)c1
AC50 [14]: 92.4 µM (active)

COCCCn1c(-c2ccc(OC)cc2)cc(C(=O)NC2CCCCCCC2)c1C
IC50 [7]: 3.95 µM (active) | EC50 [8]: > 53 µM (inactive) | IC50 [9]: 11.5 µM (active)

O=C(CSc1nc2ccccc2[nH]1)Nc1nc(-c2ccc(Br)cc2)cs1
IC50 [15]: 85.4 µM (inactive) | IC50 [16]: 55.6 µM (inactive) | IC50 [17]: 90.6 µM (inactive)

CCc1c(C)c2ccc(OC3CCCCC3=O)cc2oc1=O (stereo not drawn)
EC50 [18]: > 91.2 µM (inactive) | EC50 [19]: > 91.2 µM (inactive)

O=C(NNc1c2ccccc2nc2ccccc12)c1ccc(Cl)cc1
IC50 (Protein skinhead-1): > 100 µM (inactive) | IC50 [20]: 46.5 µM (inactive)
